# In US5880158A, “Propionamide anticonvulsants” (Research Corporation Tech., Inc., priority 1997, dated 1999):
# Experiments:
# [1] = test system: male albino Cartworth Farms No. 1 mice; assay: maximal electroshock seizure (MES) test in mice; format: in vivo; details: intraperitoneal; for ED50: Mus musculus, ip, at time of peak effect, numbers in parentheses 95% confidence intervals
# Description: (§1) Activity was established using the electrical (maximal electroshock or MES) test. In the MES test, a drop of electrolyte solution with anesthetic (0.5% butacaine hemisulfate in 0.9% sodium chloride) was used in the eyes of the animals prior to positioning the corneal electrodes and delivery of current. A 60 cycle alternating current was administered for 0.2 sec. at 50 mA. Protection endpoints were defined as the abolition of the hind limb tonic extensor component of the induced seizure. In mice, the effects of compounds on forced spontaneous motor activity were determined using the rotorod test. […] Normally under these conditions, a mouse can maintain its balance almost indefinitely. In the mouse identification screening study all compounds were given at three dose levels (30, 100, 300 mg/kg) and two time periods (0.5, 4h). Typically, in the MES seizures test one animal was used at 30 mg/kg and 300 mg/kg, and three animals at 100 mg/kg. In the rotorod toxicity test four animals were used at 30 mg/kg, and 300 mg/kg, and eight animals at 100 mg/kg. If activity was found at 30 mg/kg, then lower dosages were used to find the ED50 values.
# [2] = rotorod test, neurologic toxicity in mice; format: in vivo; details: mouse, ip, intraperitoneal, at time of peak effect, numbers in parentheses 95% confidence intervals, read-out: Tox TD50
# Description: as §1
# [3] = test system: male albino Cartworth Farms No. 1 mice; assay: protective index (TD50/ED50), rotorod versus MES in mice; details: for protective index (in words): compared with phenytoin, phenobarbital and valproate
# From the text: Compounds were screened under the auspices of the National Institutes of Health for anticonvulsant activity in male albino Cartworth Farms No. 1 mice (ip route). Activity was established using the electrical (maximal electroshock or MES) test. In the MES test, a drop of electrolyte solution with anesthetic (0.5% butacaine hemisulfate in 0.9% sodium chloride) was used in the eyes of the animals prior to positioning the corneal electrodes and delivery of current. A 60 cycle alternating current was administered for 0.2 sec. at 50 mA. Protection endpoints were defined as the abolition of the hind limb tonic extensor component of the induced seizure. In mice, the effects of compounds on forced spontaneous motor activity were determined using the rotorod test. […] Normally under these conditions, a mouse can maintain its balance almost indefinitely. In the mouse identification screening study all compounds were given at three dose levels (30, 100, 300 mg/kg) and two time periods (0.5, 4h). Typically, in the MES seizures test one animal was used at 30 mg/kg and 300 mg/kg, and three animals at 100 mg/kg. In the rotorod toxicity test four animals were used at 30 mg/kg, and 300 mg/kg, and eight animals at 100 mg/kg.
# The quantitative determination of the median effective (ED50) and toxic doses (TD50) were conducted at previously calculated times of peak effect. Groups of at least eight animals were tested using different doses of test compound until at least two points were determined between 100 and 0% protection and minimal motor impairment. The dose of candidate substance required to produce the defined endpoint in 50% of the animals in each test and the 95% confidence interval were calculated.
# [4] = test system: male albino Cartworth Farms No. 1 mice; assay: rotorod test, neurologic toxicity in mice; format: in vivo; details: intraperitoneal, at time of peak effect, numbers in parentheses 95% confidence intervals
# Description: as §1
SMILES,anticonvulsant activity / efficacy (in words) ([1]; MES),TD50 [2] [mg/kg],ED50 [1] [mg/kg],Tox TD50 [4] [mg/kg],also measured
"O=C(NCc1ccccc1)C(O)CO (racemic) [R, S OH CH2 OH, N-Benzyl 2,3-Dihydroxypropionamide]",very low anticonvulsant activity,> 300,,,
"COCC(OC)C(=O)NCc1ccccc1 (stereo not shown) [R, S OCH3 CH2 OCH3, N-BENZYL 2,3-DIMETHOXY PROPIONAMIDE]",much greater efficacy,280,30,,"ED50, times more effective than that of the dihydroxy compound ([1]; MES, diether versus dihydroxy compound): greater than 3 times; protective index (in words) ([3]; listed as N-Benzyl 2,3-dimethyoxypropionamide): unexpectedly high protective index; protective index (in words) ([3]; listed as diether): significantly greater than the P.I. values of phenytoin, phenobarbital and valproate; P.I. (protective index, TD50/ED50) ([3]; intraperitoneal): 9.3; P.I., times more effective than that of the dihydroxy compound ([3]; intraperitoneal, diether versus dihydroxy compound): greater than 3 times"
CCCC(CCC)C(=O)O [valproate],,,290,480,
CCC1(c2ccccc2)C(=O)NC(=O)NC1=O [phenobarbital],,,22,,
"COC[C@@H](OC)C(=O)NCc1ccccc1 [R OCH3 CH2 OCH3, (R)-N-Benzyl-2,3-dimethoxypropionamide]",,300,,,
O=C1NC(=O)C(c2ccccc2)(c2ccccc2)N1 [phenytoin],,,6.5,43,
